From patent publication US10591497B2, “Immunoassay for synthetic cannabinoids of the adamantyl indazole/indole-3-carboxamide family” (Randox Laboratories Limited, priority 2014, dated 2020)
Converted amounts (≈) assume the structure as drawn.

System: antibody derived from Immunogen of Example 9
Assay: Competitive immunoassay (ELISA), IC50 derivation and cross-reactivity
Assay type: binding, sheep
Settings: for % CROSS-REACTIVITY: compared to 100% for AKB48; for % CROSS-REACTIVITY / IC50: Tracer 1 of Example 10; for IC50: Table 2, generated as per AKB48 and Table 1; for binding to the antibodies of the invention: "does not bind" = cross-reactivity of less than 2% vs 100% for AKB48 under Example 12 conditions
Protocol: All cross-reactivity are measured herein under the experimental conditions of Example 12 and compared to 100% for AKB48.
IgG is extracted from the antisera and immobilised on a 96 well ELISA plate (coated for 2 hours at +37° C. at 10 ug/ml in a Phosphate Buffered Saline pH7.2). Unbound material is removed by washing with Tris Buffered Saline (TBS) containing tween ([…]) over 10 minutes. Standard AKB48 is added at the concentrations quoted in Table 1, followed by detection agent 1 (FIG. 2) at 1/140 k in a dilution buffer. After incubation (60 mins) at +15 to +25° C. to allow a competition reaction to take place, the microtitre plate is washed with TBS containing Tween™ to remove excess reagents. The enzyme substrate […] (125 μl) is added (Kem-en-Tec Cat. No. 4800). After a 20 minute incubation period to allow maximum colour development, the colour reaction is stopped by the addition of sulphuric acid (0.2M, 120 μl). This produces a colour change from blue to yellow, and the absorbances are read at 450 nm. A standard curve is then constructed and the IC50 calculated as the AKB48 concentration which produces 50% inhibition of maximal signal. This process was repeated for synthetic cannabinoid members as stated in Table 2 to assess cross-reactivity.
The cross-reactivity (CR) was calculated using the equation below. All calculations were based upon binding and displacement at the 50% of maximum OD (optical density) binding point. The maximum OD is the signal generated using tracer alone and 50% displacement (inhibition) corresponds to the IC50. […]
The extent of antibody binding to synthetic cannabinoids of various families was assessed (Table 2). For the cross-reactants with IC50 values, standard curves were derived for each analyte (as per AKB48 and Table 1). […] In all cases, the cross-reactivity set out in Table 2 was measured using an antibody derived from the immunogen of Example 9 and Tracer 1 of Example 10.

[1] = single cross-reactant at 300 ng/ml
[2] = standard curve derived for each analyte

SMILES | % CROSS-REACTIVITY [1] [%] | binding to the antibodies of the invention | also measured
O=C(O)c1cn(CC2CCCCC2)c2ccccc12 [3-Carboxyindole metabolite of BB-22] | <1.00 | – | –
CCCCCn1nc(C(=O)NC23CC4CC(CC(O)(C4)C2)C3)c2ccccc21 [3-OH-AKB48, (3-hydroxy-1-adamantyl) 1-pentylindazole-3-carboxamide] | – | – | IC50: 0.18 ng/mL (≈ 0.000472 µM); % CROSS-REACTIVITY [2]: 1163.53%
CCCCCn1cc(C(=O)NC23CC4CC(CC(O)(C4)C2)C3)c2ccccc21 [3-OH-SDB001] | – | – | IC50: 4.40 ng/mL (≈ 0.0116 µM); % CROSS-REACTIVITY [2]: 47.30%
O=C(O)c1cn(CCCCCF)c2ccccc12 [3-carboxyindole of 5-fluoro PB-22] | <1.00 | – | –
O=C(Oc1cccc2cccnc12)c1cn(CCCCCF)c2ccccc12 [5-fluoro PB-22] | <1.00 | – | –
CC1(C)C(C(=O)c2cn(CC3CCOCC3)c3ccccc23)C1(C)C [A-834735] | <1.00 | – | –
CC1(C)C(C(=O)c2cn(CCN3CCOCC3)c3ccccc23)C1(C)C [A-7969260] | <1.00 | – | –
O=C(O)CCCCn1cc(C(=O)C23CC4CC(CC(C4)C2)C3)c2ccccc21 [AB001 N-Pentanoic Acid] | <1.00 | do not bind | –
O=C(c1cn(CCCCCO)c2ccccc12)C12CC3CC(CC(C3)C1)C2 [AB001 N-Pentanol] | <1.00 | do not bind | –
CCCCCn1nc(C(=O)N[C@H](C(N)=O)C(C)C)c2ccccc21 [AB Pinaca] | <1.00 | does not bind | –
O=C(NC12CC3CC(CC(C3)C1)C2)c1nn(CCCCCF)c2ccccc12 [AKB48 N-(5-fluoropentyl)] | – | – | IC50: 2.10 ng/mL (≈ 0.00548 µM); % CROSS-REACTIVITY [2]: 98.90%
O=C(O)CCCCn1nc(C(=O)NC23CC4CC(CC(C4)C2)C3)c2ccccc21 [AKB48 N-Pentanoic acid (LK1461)] | <1.00 | do not bind | –
CCCCCn1cc(C(=O)NC23CC4CC(CC(C4)C2)C3)c2ccccc21 [AKB48, N-(1-adamantyl)-1-pentyl-1H-indole-3-carboxamide] | – | – | % B/B0 (AKB48 concentration 0.25 ng/ml): 88%; % B/B0 (AKB48 concentration 0.74 ng/ml): 69%; % B/B0 (AKB48 concentration 2.22 ng/ml): 50%; % B/B0 (AKB48 concentration 6.67 ng/ml): 26%; % B/B0 (AKB48 concentration 20.00 ng/ml): 12%; IC50: 2.08 ng/mL (≈ 0.00571 µM); % CROSS-REACTIVITY [2]: 100.00%
N#CCCCCn1cc(C(=O)c2cccc3ccccc23)c2ccccc21 [AM2232] | <1.00 | – | –
O=C(c1ccccc1I)c1cn(CCCCCF)c2ccccc12 [AM-694] | <1.00 | does not bind | –
CN1CCCCC1Cn1cc(C(=O)C23CC4CC(CC(C4)C2)C3)c2ccccc21 (stereo not drawn) [AM-1248] | <1.00 | does not bind | –
O=C(c1cccc2ccccc12)c1cn(CCCCCF)c2cc(O)ccc12 [AM-2201 6-Hydroxyindole] | <1.00 | – | –
O=C(c1cccc2ccccc12)c1cn(CCCC(O)CF)c2ccccc12 (stereo not drawn) [AM-2201 N-(4-Hydroxypentyl)] | <1.00 | – | –
O=C(c1cccc2ccccc12)c1cn(CCCCCF)c2ccccc12 [AM-2201] | <1.00 | – | –
O=C(Oc1cccc2cccnc12)c1cn(CC2CCCCC2)c2ccccc12 [BB-22] | <1.00 | – | –
CCCCCn1c(C)c(C(=O)c2cccc3ccccc23)c2ccccc21 [JWH-007] | <1.00 | – | –
CCCn1c(C)c(C(=O)c2cccc3ccccc23)c2ccccc21 [JWH-015] | <1.00 | – | –
CCCCCn1cc(C(=O)c2cccc3ccccc23)c2c(O)cccc21 [JWH-018 4-Hydroxyindole] | <1.00 | – | –
CCCCCn1cc(C(=O)c2cccc3ccccc23)c2cc(O)ccc21 [JWH-018 5-Hydroxyindole] | <1.00 | – | –
CCCCCn1cc(C(=O)c2cccc3ccccc23)c2ccc(O)cc21 [JWH-018 6-Hydroxyindole] | <1.00 | – | –
O=C(c1cccc2ccccc12)c1cn(CCCCCO)c2ccccc12 [JWH-018 N-(5-Hydroxypentyl)] | <1.00 | – | –

SMILES | % CROSS-REACTIVITY [1] [%] | binding to the antibodies of the invention | also measured
O=C(O)CCCCn1cc(C(=O)c2cccc3ccccc23)c2ccccc21 [JWH-018 N-Pentanoic acid] | <1.00 | – | –
CCCCCn1cc(C(=O)c2cccc3ccccc23)c2ccccc21 [JWH-018] | <1.00 | do not bind | –
CCCCCCn1cc(C(=O)c2cccc3ccccc23)c2ccccc21 [JWH-019] | <1.00 | – | –
C=CCCCn1cc(C(=O)c2cccc3ccccc23)c2ccccc21 [JWH-022] | <1.00 | – | –
CCCCn1cc(C(=O)c2cccc3ccccc23)c2c(O)cccc21 [JWH-073 4-Hydroxyindole] | <1.00 | – | –
CCCCn1cc(C(=O)c2cccc3ccccc23)c2cc(O)ccc21 [JWH-073 5-Hydroxyindole] | <1.00 | – | –
CCCCn1cc(C(=O)c2cccc3ccccc23)c2ccccc21 [JWH-073] | <1.00 | do not bind | –
CCCCCn1cc(C(=O)c2ccc(OC)c3ccccc23)c2ccccc21 [JWH-081] | <1.00 | – | –
O=C(c1cccc2ccccc12)c1cn(CCN2CCOCC2)c2ccccc12 [JWH-200] | <1.00 | do not bind | –
CCCCCn1cc(C(=O)Cc2ccccc2Cl)c2ccccc21 [JWH-203] | <1.00 | does not bind | –
CCCCCn1cc(C(=O)c2ccc(CC)c3ccccc23)c2ccccc21 [JWH-210] | <1.00 | – | –
COc1ccccc1CC(=O)c1cn(CCCCCC(=O)O)c2ccccc12 [JWH-250 N-(5-Carboxypentyl)] | <1.00 | do not bind | –
COc1ccccc1CC(=O)c1cn(CCCCCO)c2ccccc12 [JWH-250 N-(5-Hydroxypentyl)] | <1.00 | do not bind | –
CCCCCn1cc(C(=O)c2ccc(Cl)c3ccccc23)c2ccccc21 [JWH-398] | <1.00 | – | –
O=C(c1c[nH]c2ccccc12)C12CC3CC(CC(C3)C1)C2 [N-Desalkyl AB001] | <1.00 | – | –
CCCCCn1cc(C(=O)O)c2ccccc21 [PB-22 3-Carboxyindole metabolite] | <1.00 | – | –
CCCCCn1cc(C(=O)Oc2cccc3cccnc23)c2ccccc21 [PB-22] | <1.00 | does not bind | –
CCCCCn1cc(C(=O)c2ccc(OC)cc2)c2ccccc21 [RCS-4] | – | does not bind | IC50: 124.55 ng/mL (≈ 0.387 µM); % CROSS-REACTIVITY [2]: 1.67%
COc1ccccc1CC(=O)c1cn(CCC2CCCCC2)c2ccccc12 [RCS-8] | <1.00 | does not bind | –
CCCCCn1cc(C(=O)NC23CC4CC(CC(C4)C2)C3)c2ccccc21 [SDB001] | – | – | IC50: 52.00 ng/mL (≈ 0.143 µM); % CROSS-REACTIVITY [2]: 4.07%
O=C(O)CCCCn1cc(C(=O)NC23CC4CC(CC(C4)C2)C3)c2ccccc21 [SDB-001 N-Pentanoic acid (LK1404)] | <1.00 | do not bind | –
O=C(NC12CC3CC(CC(C3)C1)C2)c1cn(CCCCCF)c2ccccc12 [STS135] | – | – | IC50: 24.76 ng/mL (≈ 0.0647 µM); % CROSS-REACTIVITY [2]: 8.41%
CC1(C)C(C(=O)c2cn(CCCCC(=O)O)c3ccccc23)C1(C)C [UR-144 N Pentanoic acid] | <1.00 | – | –
CCCCCn1cc(C(=O)C2C(C)(C)C2(C)C)c2ccccc21 [UR-144] | <1.00 | do not bind | –
CC1(C)C(C(=O)c2cn(CCCCCF)c3ccccc23)C1(C)C [XLR-11] | <1.00 | do not bind | –
